Patent publication US20090055940A1, “ZEBRAFISH MODEL OF MLL LEUKEMOGENESIS” (priority 2006, published 2009)
Entries after “also recorded” stand apart in the source; their conditions may differ.

Legend:
[1] = test system: zebrafish mll mRNA (exon 2-intron 2 splice junction); assay: RT-PCR of zebrafish mll transcript splicing after morpholino knockdown; assay type: in vivo; details: embryos injected at 1-2 cell stage with 16 ng, products sequenced
Procedure: (§1) A detailed characterization of the role of wild-type mll in the development of the zebrafish hematopoietic system was also performed. The morpholino knockdown strategy (Paffett-Lugassy et al. (2005) Methods Mol. Med., 105:171-98) was employed to characterize the phenotype of loss of mll and determine whether zebrafish mll depletion is associated with a phenotype resembling that in mammals. […] The construct was obtained from Gene Tools, LLC (Philomath, Oreg.). Target mRNA sequence was 5′-[…]gtaaacaaattctctaaattattgt-3′ (SEQ ID NO: 38; Exon 2 is capitalized; intron 2 is lower case; underline indicates 25-base sequence encompassed by morpholino). The MO E2I2 sequence was 5′-tagagaatttgtttacCTATTGACG-3′ (SEQ ID NO: 39). The normal transcript splicing is shown by the grey lines in FIG. 11A. The aberrant splicing of exon 1 to exon 3 is shown by the black lines in FIG. 11A and the thick black line in FIG. 11A indicates a second form of aberrant splicing due to failure to splice out intron 2. A 2 mM (16 ng/nl) MO E2I2 stock solution was prepared in dH2O and diluted in Danieau Solution to the desired concentration.
Wild type male and female adults were bred, fertilized eggs collected, and 100 embryos at the 1-2 cell stage were injected with 16 ng of MO E2I2. […]

zebrafish embryos = assay: Phenotype of zebrafish embryos after mll depletion (DIC microscopy of live embryos); assay type: in vivo
Procedure: as §1
Wild type male and female adults were bred, fertilized eggs collected, and 100 embryos at the 1-2 cell stage were injected with 16 ng of MO E2I2. Control uninjected embryos (n=100) and injected embryos were raised in petri dishes in E3 embryo medium (Paffett-Lugassy et al. (2005) Methods Mol. Med., 105:171-98) to the desired age. PTU (1-phenyl-2-thiourea) was applied at 24 hpf as described (Herbomel et al. (2005) Methods Mol. Med., 105:199-214) to inhibit melanin synthesis. To harvest embryos for RNA, 20 embryos were collected in 1.5 ml eppendorf tubes, E3/PTU was removed, embryos were anesthetized with tricaine, tricaine was removed, 100% methanol was added and tubes were placed at −20° C. RNA was prepared using RNeasy (Qiagen) and RT-PCR was performed using SuperScript III One Step kit (Invitrogen) with sense and antisense primers 5′-[…]-3′ (SEQ ID NO: 40) and 5′-[…]-3′ (SEQ ID NO: 41). Knockdown of properly spliced transcript and production of two aberrant transcripts shown in the schematics of FIG. 11B was confirmed by sequencing the products.
DIC images of representative live embryos were taken using Leica DMRBE microscope with 4× objective and captured using Image Pro. […] By 48 hpf, erythroid cells are seen in heart/ventral anterior yolk sac of control (filled black arrow in FIG. 11C). In contrast, erythroid cells are barely visible in morphant (unfilled black arrow), and morphant has smaller eyes (arrow) and persistent hindbrain abnormality (arrow) (FIG. 11C).

[2] = 48 hpf, 16 ng injected, vs un-injected control embryos

“5′-tagagaatttgtttacCTATTGACG-3′ (antisense TAGAGAATTTGTTTACCTATTGACG; all phosphorodiamidate morpholino (PMO)) [MO E2I2]” was tested, and the “effect on mll transcript splicing” value [1] was “effectively disrupted; also recorded: inhibited proper splicing and resulted in production of two different aberrantly spliced mll mRNAs and reduction of the normal transcript”, the “morphant phenotype by 28 hpf” value (zebrafish embryos; 28 hpf, 16 ng injected, vs un-injected control embryos) was “aberrant protrusion at the tip of the head and enlarged hindbrain ventricle” and the “erythroid cells in the heart and at the ventral yolk sac by 48 hpf” value (zebrafish embryos; [2]) was “substantially less erythroid cells”. For the same substance, the “other morphant features (eyes, hindbrain)” value (zebrafish embryos; [2]) was “smaller eyes and a prominent hindbrain abnormality”, the “viability of morphant embryos” value (zebrafish embryos; embryos injected with 16 ng at 1-2 cell stage) was “viable” and the “embryos exhibiting a phenotype that included hematopoietic and neuronal defects, small size, and delayed development” value (zebrafish embryos; of the 100 embryos injected with 16 ng at 1-2 cell stage) was “Approximately 60%”.
